Key:
Assay type in all cases: cell-based
ARCaPE cells = experiment: Chemotherapeutic sensitivity, cell growth by MTT assay, ARCaPE cells; settings: Homo sapiens, in vitro growth, 96 hrs incubation
Description: (§1) Cells (5×10^3 per well) were cultured in 96-well plates for 24 hr and then replaced with fresh cultured medium to which were added Paclitaxel, Etoposide, or Doxorubicin (Sigma, St. Louis, Mo.) at 4 different concentrations, followed by incubation for 96 hrs. Cell growth was measured using the MTT assay.

ARCaPM cells = experiment: Chemotherapeutic sensitivity, cell growth by MTT assay, ARCaPM cells; settings: Homo sapiens, in vitro growth, 96 hrs incubation
Description: as §1

C4-2 cells = experiment: Chemotherapeutic sensitivity, cell growth by MTT assay, C4-2 cells; settings: Homo sapiens, invasive LNCaP lineage C4-2 cells, in vitro growth
Description: as §1

SMILES	IC50 (ARCaPE cells) [µM]	IC50 (ARCaPM cells) [µM]	IC50 (C4-2 cells) [µM]
COc1cccc2c1C(=O)c1c(O)c3c(c(O)c1C2=O)C[C@@](O)(C(=O)CO)C[C@@H]3O[C@H]1C[C@H](N)[C@H](O)[C@H](C)O1 [doxorubicin]	3.4	5.5	2.7
COc1cc([C@@H]2c3cc4c(cc3[C@@H](O[C@@H]3O[C@@H]5CO[C@@H](C)O[C@H]5[C@H](O)[C@H]3O)[C@H]3COC(=O)[C@H]23)OCO4)cc(OC)c1O [etoposide]	8.1	5.8	5.6
CC(=O)O[C@H]1C(=O)[C@@]2(C)[C@H]([C@H](OC(=O)c3ccccc3)[C@]3(O)C[C@H](OC(=O)[C@H](O)[C@@H](NC(=O)c4ccccc4)c4ccccc4)C(C)=C1C3(C)C)[C@]1(OC(C)=O)CO[C@@H]1C[C@@H]2O [paclitaxel]	0.053	0.039	0.0235

Reference: patent US20090028832A1, “Compositions and methods for targeted tumor therapy” (priority 2006, published 2009)
